Experimental data: the CheMixHub viscosity set

Test: xn = mol fraction of the nth substance listed

Clc1cccc2ccccc12 + Cc1ccc(C)cc1
viscosity [mPa·s], 101.33 kPa
Conditions	x1 = 0.0966	x1 = 0.1961	x1 = 0.2964	x1 = 0.3991	x1 = 0.4981	x1 = 0.597	x1 = 0.7003	x1 = 0.7974	x1 = 0.8991
298.15 K	0.635	0.737	0.847	1.002	1.16	1.36	1.614	1.899	2.294
303.15 K	0.596	0.687	0.789	0.926	1.074	1.25	1.475	1.723	2.072
308.15 K	0.562	0.644	0.738	0.863	0.997	1.158	1.357	1.576	1.882

N#CCCCCC#N + CCOC(C)=O
303.15 K, 101.33 kPa
Conditions	viscosity [mPa·s]
x1 = 0.1075	0.5353
x1 = 0.3039	0.8893
x1 = 0.3934	1.116
x1 = 0.4973	1.451
x1 = 0.5975	1.861
x1 = 0.6944	2.366
x1 = 0.85	3.442

N#CCCCCC#N + CN(C)C=O
303.15 K, 101.33 kPa
Conditions	viscosity [mPa·s]
x1 = 0.1051	0.9087
x1 = 0.2983	1.335
x1 = 0.3971	1.636
x1 = 0.4957	2.001
x1 = 0.5919	2.413
x1 = 0.6983	2.957
x1 = 0.8486	3.821

Clc1cccc2ccccc12 + CCCO
viscosity [mPa·s], 101.33 kPa
Conditions	x1 = 0.1004	x1 = 0.2017	x1 = 0.2983	x1 = 0.395	x1 = 0.5003	x1 = 0.6002	x1 = 0.6993	x1 = 0.7991	x1 = 0.9003
298.15 K	1.968	2.039	2.091	2.172	2.255	2.349	2.448	2.567	2.716
303.15 K	1.745	1.805	1.854	1.918	1.999	2.077	2.166	2.275	2.417
308.15 K	1.57	1.62	1.672	1.714	1.789	1.86	1.943	2.043	2.178

C=CC(=O)OCC + CCCCCCCCCCO
viscosity [mPa·s], 101.3 kPa
Conditions	x1 = 0.0861	x1 = 0.235	x1 = 0.302	x1 = 0.4261	x1 = 0.5383	x1 = 0.7248	x1 = 0.8036	x1 = 0.8763	x1 = 0.9389	x1 = 0.9688
298.15 K	8.526	5.017	3.969	2.618	1.895	1.076	0.86	0.702	0.602	0.563
308.15 K	6.006	3.812	3.085	2.104	1.515	0.898	0.73	–	0.525	0.497

COCCOCCOCCOCCOC + ClC(Cl)Cl
298.15 K, 101 kPa
Conditions	viscosity [mPa·s]
x1 = 0.0305	0.671
x1 = 0.06	0.81
x1 = 0.0813	0.921
x1 = 0.118	1.124
x1 = 0.1876	1.492
x1 = 0.2354	1.766
x1 = 0.2657	1.91
x1 = 0.2957	2.04
x1 = 0.35	2.276
x1 = 0.4029	2.413
x1 = 0.4429	2.521
x1 = 0.5093	2.676
x1 = 0.5445	2.745
x1 = 0.6146	2.883
x1 = 0.6452	2.925
x1 = 0.7142	3.035
x1 = 0.7593	3.083
x1 = 0.8142	3.141
x1 = 0.88	3.227
x1 = 0.9225	3.252

CC(O)C(=O)O (centres undefined) + CC(C)[C@@H]1CC[C@@H](C)C[C@H]1O
100 kPa, x2 = 0.67
Conditions	viscosity [mPa·s]
293.15 K	370.9
298.15 K	218.9
303.15 K	134.3
308.15 K	86.53
313.15 K	58.84
318.15 K	40.71
323.15 K	29.47

CCc1ccccc1 + CO
viscosity [mPa·s], 101 kPa
Conditions	x2 = 0.1406	x2 = 0.3326	x2 = 0.5278	x2 = 0.6721	x2 = 0.7828	x2 = 0.8113	x2 = 0.8848
298.15 K	0.6135	0.6134	0.6258	0.6323	0.6247	0.618	0.5991
308.15 K	0.5262	0.5283	0.5395	0.5368	0.525	0.5202	0.5052

C=CC(=O)OCC + c1ccccc1
viscosity [mPa·s], 101 kPa
Conditions	x2 = 0.1283	x2 = 0.2137	x2 = 0.3255	x2 = 0.4115	x2 = 0.5361	x2 = 0.6109	x2 = 0.7033	x2 = 0.8074	x2 = 0.9025
298.15 K	0.531	0.533	0.537	0.541	0.55	0.558	0.568	0.579	0.591
303.15 K	0.499	0.5	0.501	0.502	0.509	0.516	0.524	0.535	0.548
308.15 K	0.461	0.46	0.461	0.462	0.466	0.472	0.481	0.495	0.508
313.15 K	0.412	0.41	0.411	0.412	0.415	0.42	0.431	0.444	0.458

C=CC(=O)OCC + CCCCCCCCO
viscosity [mPa·s], 101.3 kPa
Conditions	x1 = 0.0771	x1 = 0.2017	x1 = 0.2664	x1 = 0.3869	x1 = 0.4933	x1 = 0.6865	x1 = 0.7722	x1 = 0.8504	x1 = 0.9275	x1 = 0.9634
298.15 K	5.444	3.576	2.914	2.043	1.543	0.96	0.785	0.681	0.582	0.546
308.15 K	4.096	2.812	2.301	1.663	1.268	0.825	0.678	0.586	0.507	0.478
